Laboratory results: patent US11446287B2, “Compounds and methods for EP300 or CBP modulation and indications therefor” (Opna Immuno-Oncology SA, priority 2019, dated 2022)
pIC50: −log10 of the molar value.

Molecular target: T1, Recombinant human EP300 containing the bromodomain (EP300-BD (1040-1161)) (Homo sapiens, UniProt Q09472)
T1 construct: Recombinant human EP300 bromodomain (EP300-BD (1040-1161)); made in house; host or cells: E. coli BL21-CodonPlus (DE3), modified pET vector
T1 sequence (Q09472 1040-1161): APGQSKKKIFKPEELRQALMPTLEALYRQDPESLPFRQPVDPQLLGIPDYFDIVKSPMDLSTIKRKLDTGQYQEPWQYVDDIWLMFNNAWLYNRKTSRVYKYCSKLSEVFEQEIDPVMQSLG
Experiment: EP300 Alphascreen binding assay
How it was run: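 Displacement of a biotinylated acetyl-K56 histone H3 peptide from the N-His bromodomain construct (1040-1161) measured by AlphaScreen proximity, beads at 7.5 μg/ml final, read 60 min after addition. Protein, peptide and compound first incubated 1 h at room temperature, pH 7.5 HEPES buffer; IC50 by four-parameter logistic fit.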

SMILES	pIC50
Cc1noc(C)c1-c1cnc2c(c1)c(-c1ccc(C(=O)O)cc1OC(C)C)cn2-c1ncccc1C#N [P-0336, 4-(1-(3-cyanopyridin-2-yl)-5-(3,5-dimethylisoxazol-4-yl)-1H-pyrrolo[2,3-b]pyridin-3-yl)-3-isopropoxybenzoic acid]	6.00 to 10.00
Cc1noc(C)c1-c1cnc2c(c1)c(-c1ccc(C(=O)O)cc1OC(F)(F)F)cn2-c1cnn(C)c1 [P-0318, 4-(5-(3,5-dimethylisoxazol-4-yl)-1-(1-methyl-1H-pyrazol-4-yl)-1H-pyrrolo[2,3-b]pyridin-3-yl)-3-(trifluoromethoxy)benzoic acid]	6.00 to 10.00
CCOc1cc(C(=O)O)c(F)cc1-c1cn([C@H]2CCOC2)c2ncc(-c3c(C)noc3C)cc12 [P-0360, (S)-4-(5-(3,5-dimethylisoxazol-4-yl)-1-(tetrahydrofuran-3-yl)-1H-pyrrolo[2,3-b]pyridin-3-yl)-5-ethoxy-2-fluorobenzoic acid]	6.00 to 10.00
Cc1noc(C)c1-c1cnc2c(c1)c(-c1ccc(C(=O)O)cc1OC1CC1)cn2-c1ncccc1C#N [P-0337, 4-(1-(3-cyanopyridin-2-yl)-5-(3,5-dimethylisoxazol-4-yl)-1H-pyrrolo[2,3-b]pyridin-3-yl)-3-cyclopropoxybenzoic acid]	6.00 to 10.00
Cc1noc(C)c1-c1cnc2c(c1)c(-c1ccc(C(=O)O)cc1OC(F)(F)F)cn2C1(C)CCOCC1 [P-0385, 4-(5-(3,5-dimethylisoxazol-4-yl)-1-(4-methyltetrahydro-2H-pyran-4-yl)-1H-pyrrolo[2,3-b]pyridin-3-yl)-3-(trifluoromethoxy)benzoic acid]	6.00 to 10.00
Cc1noc(C)c1-c1cnc2c(c1)c(-c1ccc(C(=O)O)cc1OC(F)(F)F)cn2C1(CC#N)CCC1 [P-0335, 4-(1-(1-(cyanomethyl)cyclobutyl)-5-(3,5-dimethylisoxazol-4-yl)-1H-pyrrolo[2,3-b]pyridin-3-yl)-3-(trifluoromethoxy)benzoic acid]	6.00 to 10.00
Cc1noc(C)c1-c1ccc2c(c1)c(-c1ccc(C(=O)O)cc1OC(F)(F)F)cn2C(C1CC1)C1CC1 [P-0344, 4-(1-(dicyclopropylmethyl)-5-(3,5-dimethylisoxazol-4-yl)-1H-indol-3-yl)-3-(trifluoromethoxy)benzoic acid]	6.00 to 10.00
CCOc1cc(C(=O)O)nc(OCC)c1-c1cn(C2CCOCC2)c2ncc(-c3c(C)noc3C)cc12 [P-0373, 5-(5-(3,5-dimethylisoxazol-4-yl)-1-(tetrahydro-2H-pyran-4-yl)-1H-pyrrolo[2,3-b]pyridin-3-yl)-4,6-diethoxypicolinic acid]	6.00 to 10.00
Cc1noc(C)c1-c1cnc2c(c1)c(-c1ccc(C(=O)O)cc1OC(F)(F)F)cn2-c1cnc(N)nc1 [P-0320, 4-(1-(2-aminopyrimidin-5-yl)-5-(3,5-dimethylisoxazol-4-yl)-1H-pyrrolo[2,3-b]pyridin-3-yl)-3-(trifluoromethoxy)benzoic acid]	6.00 to 10.00
CCOc1nc(C(=O)O)ccc1-c1cn(C2CCOCC2)c2ncc(-c3c(C)noc3C)cc12 [P-0376, 5-(5-(3,5-dimethylisoxazol-4-yl)-1-(tetrahydro-2H-pyran-4-yl)-1H-pyrrolo[2,3-b]pyridin-3-yl)-6-ethoxypicolinic acid]	6.00 to 10.00
Cc1noc(C)c1-c1cnc2c(c1)c(-c1c(Cl)cc(C(=O)O)cc1OC1CCC1)cn2C(C1CC1)C1CC1 [P-0356, 3-chloro-5-cyclobutoxy-4-(1-(dicyclopropylmethyl)-5-(3,5-dimethylisoxazol-4-yl)-1H-pyrrolo[2,3-b]pyridin-3-yl)benzoic acid]	6.00 to 10.00
CCOc1cc(C(=O)O)c(F)cc1-c1cn(-c2ccc(F)cc2F)c2ncc(-c3c(C)noc3C)cc12 [P-0330, 4-(1-(2,4-difluorophenyl)-5-(3,5-dimethylisoxazol-4-yl)-1H-pyrrolo[2,3-b]pyridin-3-yl)-5-ethoxy-2-fluorobenzoic acid]	6.00 to 10.00
CCn1cc(-n2cc(-c3ccc(C(=O)O)cc3OCC(F)F)c3cc(-c4c(C)noc4C)cnc32)c(C)n1 [P-0326, 3-(2,2-difluoroethoxy)-4-(5-(3,5-dimethylisoxazol-4-yl)-1-(1-ethyl-3-methyl-1H-pyrazol-4-yl)-1H-pyrrolo[2,3-b]pyridin-3-yl)benzoic acid]	6.00 to 10.00
Cc1noc(C)c1-c1cnc2c(c1)c(-c1ccc(C3(C(=O)O)CC3)cc1)cn2C(c1ccccn1)C1CCCC1 (centres unmarked) [P-0033, 1-(4-(1-(cyclopentyl(pyridin-2-yl)methyl)-5-(3,5-dimethylisoxazol-4-yl)-1H-pyrrolo[2,3-b]pyridin-3-yl)phenyl)cyclopropane-1-carboxylic acid]	6.00 to 10.00
Cc1noc(C)c1-c1cnc2c(c1)c(-c1c(Cl)cc(C(=O)O)cc1OCC(F)F)cn2-c1cnn(C(F)F)c1C [P-0352, 3-chloro-5-(2,2-difluoroethoxy)-4-(1-(1-(difluoromethyl)-5-methyl-1H-pyrazol-4-yl)-5-(3,5-dimethylisoxazol-4-yl)-1H-pyrrolo[2,3-b]pyridin-3-yl)benzoic acid]	6.00 to 10.00
Cc1noc(C)c1-c1cnc2c(c1)c(-c1ccc(C(=O)O)cc1OCC(F)F)cn2C(C1CC1)C1CC1 [P-0338, 4-(1-(dicyclopropylmethyl)-5-(3,5-dimethylisoxazol-4-yl)-1H-pyrrolo[2,3-b]pyridin-3-yl)-3-(2,2-difluoroethoxy)benzoic acid]	6.00 to 10.00
COc1cc(C(=O)O)ncc1-c1cn(C(C2CC2)C2CC2)c2ncc(-c3c(C)noc3C)cc12 [P-0339, 5-(1-(dicyclopropylmethyl)-5-(3,5-dimethylisoxazol-4-yl)-1H-pyrrolo[2,3-b]pyridin-3-yl)-4-methoxypicolinic acid]	6.00 to 10.00
Cc1nn(C(F)F)cc1-n1cc(-c2ccc(C(=O)O)cc2OC2CCC2)c2cc(-c3c(C)noc3C)cnc21 [P-0351, 3-cyclobutoxy-4-(1-(1-(difluoromethyl)-3-methyl-1H-pyrazol-4-yl)-5-(3,5-dimethylisoxazol-4-yl)-1H-pyrrolo[2,3-b]pyridin-3-yl)benzoic acid]	6.00 to 10.00
COc1nc(C(=O)O)ccc1-c1cn(C2CCOCC2)c2ncc(-c3c(C)noc3C)cc12 [P-0368, 5-(5-(3,5-dimethylisoxazol-4-yl)-1-(tetrahydro-2H-pyran-4-yl)-1H-pyrrolo[2,3-b]pyridin-3-yl)-6-methoxypicolinic acid]	6.00 to 10.00
Cc1noc(C)c1-c1cnc2c(c1)c(-c1c(Cl)cc(C(=O)O)cc1OC1CC1)cn2C(C1CC1)C1CC1 [P-0363, 3-chloro-5-cyclopropoxy-4-(1-(dicyclopropylmethyl)-5-(3,5-dimethylisoxazol-4-yl)-1H-pyrrolo[2,3-b]pyridin-3-yl)benzoic acid]	6.00 to 10.00
Cc1noc(C)c1-c1cnc2c(c1)c(-c1c(Cl)cc(C(=O)O)cc1OC1CCC1)cn2[C@H]1CCOC1 [P-0361, (S)-3-chloro-5-cyclobutoxy-4-(5-(3,5-dimethylisoxazol-4-yl)-1-(tetrahydrofuran-3-yl)-1H-pyrrolo[2,3-b]pyridin-3-yl)benzoic acid]	6.00 to 10.00
Cc1noc(C)c1-c1cnc2c(c1)c(-c1ccc(C(=O)O)cc1OC1CCC1)cn2-c1cnc(N2CCC2)nc1 [P-0347, 4-(1-(2-(azetidin-1-yl)pyrimidin-5-yl)-5-(3,5-dimethylisoxazol-4-yl)-1H-pyrrolo[2,3-b]pyridin-3-yl)-3-cyclobutoxybenzoic acid]	6.00 to 10.00
CCOc1cc(C(=O)O)nc(OCC)c1-c1cn(-c2ccc(F)cc2F)c2ncc(-c3c(C)noc3C)cc12 [P-0329, 5-(1-(2,4-difluorophenyl)-5-(3,5-dimethylisoxazol-4-yl)-1H-pyrrolo[2,3-b]pyridin-3-yl)-4,6-diethoxypicolinic acid]	6.00 to 10.00
Cc1cc(C(=O)O)cc(OCC(F)F)c1-c1cn(C2CCOCC2)c2ncc(-c3c(C)noc3C)cc12 [P-0367, 3-(2,2-difluoroethoxy)-4-(5-(3,5-dimethylisoxazol-4-yl)-1-(tetrahydro-2H-pyran-4-yl)-1H-pyrrolo[2,3-b]pyridin-3-yl)-5-methylbenzoic acid]	6.00 to 10.00
Cc1noc(C)c1-c1cnc2c(c1)c(-c1ccc(C(=O)O)cc1OCC(F)F)cn2[C@H]1CCOC1 [P-0325, (S)-3-(2,2-difluoroethoxy)-4-(5-(3,5-dimethylisoxazol-4-yl)-1-(tetrahydrofuran-3-yl)-1H-pyrrolo[2,3-b]pyridin-3-yl)benzoic acid]	6.00 to 10.00
Cc1noc(C)c1-c1cnc2c(c1)c(-c1ccc(C(=O)O)cc1OC1CC1)cn2C1CCOCC1 [P-0379, 3-cyclopropoxy-4-(5-(3,5-dimethylisoxazol-4-yl)-1-(tetrahydro-2H-pyran-4-yl)-1H-pyrrolo[2,3-b]pyridin-3-yl)benzoic acid]	6.00 to 10.00
Cc1noc(C)c1-c1cnc2c(c1)c(-c1ccc(C(=O)O)cc1OC1CCC1)cn2C1CCOCC1 [P-0341, 3-cyclobutoxy-4-(5-(3,5-dimethylisoxazol-4-yl)-1-(tetrahydro-2H-pyran-4-yl)-1H-pyrrolo[2,3-b]pyridin-3-yl)benzoic acid]	6.00 to 10.00
Cc1noc(C)c1-c1cnc2c(c1)c(-c1c(Cl)cc(C(=O)O)cc1OCC(F)F)cn2C(C1CC1)C1CC1 [P-0340, 3-chloro-4-(1-(dicyclopropylmethyl)-5-(3,5-dimethylisoxazol-4-yl)-1H-pyrrolo[2,3-b]pyridin-3-yl)-5-(2,2-difluoroethoxy)benzoic acid]	6.00 to 10.00
COc1cc(C(=O)O)ncc1-c1cn(C2CCOCC2)c2ncc(-c3c(C)noc3C)cc12 [P-0362, 5-(5-(3,5-dimethylisoxazol-4-yl)-1-(tetrahydro-2H-pyran-4-yl)-1H-pyrrolo[2,3-b]pyridin-3-yl)-4-methoxypicolinic acid]	6.00 to 10.00
